Source: patent US20250345394A1, “HAIR-GROWING OR HAIR-FOSTERING AGENT BASED ON KERATIN FINE PARTICLES” (MYQTECH INC., priority 2022, published 2025)

Test system: C57BL/6 mice
Test: Hair growing effect on mice (topical application to shaved dorsal region)
Format: in vivo
Details: 1% topically every day, male C57BL/6 mice
Description: In the present example, the hair growing effect of keratin microparticles on mice was investigated. The experiment was approved by Institutional Animal Care and Use Committee, University of Tsukuba (No. 17-060), and the procedure was carried out in conformity with the “Guiding principles for the care and use of animals in the field of physiological sciences” approved by the board of Physiological Society of Japan.
Six-week-old male C57BL/6 mice (Charles River Japan Inc.) were kept individually in a cage. acclimated for 1 week, and then randomly assigned to experiment groups (each group n=5) of a 1% Minoxidil treated group, a 1% keratin treated group, a 1% keratin microparticles treated group, and a milli-Q water treated group (control group). The mice were anesthetized with Isoflurane (Wako Pure Chemical Industries, Ltd.) and then telogen hair at the dorsal region of the mice was shaved using a hair clipper to induce the growth phase. […]
In the end of treatment period, the mice were slaughtered by cervical dislocation. […] Using ImageJ processing program (National Institutes of Health, Bethesda, USA), the hair regrowth at the treated area was measured.

Nc1cc(N2CCCCC2)nc(N)[n+]1[O-] [Minoxidil]
time of hair regrowth phenotype: ~10 day after application
